Assay results: ChEMBL document CHEMBL5653631, “A Potent and Selective ULK1 Inhibitor Suppresses Autophagy and Sensitizes Cancer Cells to Nutrient Stress” (iScience, 2018)

Tests used:
[1] = molecular target: T1, Testis-specific serine/threonine-protein kinase 3 (Homo sapiens) (UniProt Q96PN8); assay: Inhibition of human recombinant TSSK3 at 40 nM in presence of ATP by radiometric assay relative to control
T1 sequence (whole entry): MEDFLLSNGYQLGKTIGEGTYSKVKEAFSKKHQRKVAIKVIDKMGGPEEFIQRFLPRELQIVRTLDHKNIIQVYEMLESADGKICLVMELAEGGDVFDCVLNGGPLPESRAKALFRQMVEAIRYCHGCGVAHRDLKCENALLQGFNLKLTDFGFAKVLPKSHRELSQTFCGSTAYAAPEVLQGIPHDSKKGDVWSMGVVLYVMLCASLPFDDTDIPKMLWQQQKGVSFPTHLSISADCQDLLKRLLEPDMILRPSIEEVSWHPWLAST

[2] = molecular target: T2, Homeodomain-interacting protein kinase 4 (Homo sapiens) (UniProt Q8NE63); assay: Inhibition of human recombinant HIPK4 at 40 nM related to control ULK1
T2 sequence (whole entry): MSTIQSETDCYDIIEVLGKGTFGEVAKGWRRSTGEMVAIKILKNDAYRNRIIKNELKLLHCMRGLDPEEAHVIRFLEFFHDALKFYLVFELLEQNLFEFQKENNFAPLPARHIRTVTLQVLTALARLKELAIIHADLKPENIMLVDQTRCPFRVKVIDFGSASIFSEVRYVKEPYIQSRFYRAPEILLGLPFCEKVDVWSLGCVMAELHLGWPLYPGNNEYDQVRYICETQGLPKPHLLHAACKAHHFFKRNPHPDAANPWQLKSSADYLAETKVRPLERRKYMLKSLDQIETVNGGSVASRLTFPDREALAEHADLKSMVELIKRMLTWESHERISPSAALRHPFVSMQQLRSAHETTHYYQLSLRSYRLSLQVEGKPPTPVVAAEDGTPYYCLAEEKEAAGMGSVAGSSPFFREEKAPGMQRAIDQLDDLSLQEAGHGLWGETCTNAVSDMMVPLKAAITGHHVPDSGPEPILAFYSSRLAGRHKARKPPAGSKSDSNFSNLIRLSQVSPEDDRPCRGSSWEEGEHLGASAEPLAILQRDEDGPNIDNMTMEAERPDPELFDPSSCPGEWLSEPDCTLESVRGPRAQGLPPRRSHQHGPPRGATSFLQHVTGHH

[3] = molecular target: T3, Aurora kinase C (Homo sapiens) (UniProt Q9UQB9); assay: Inhibition of human recombinant AurC at 15 nM related to control ULK1
T3 sequence (whole entry): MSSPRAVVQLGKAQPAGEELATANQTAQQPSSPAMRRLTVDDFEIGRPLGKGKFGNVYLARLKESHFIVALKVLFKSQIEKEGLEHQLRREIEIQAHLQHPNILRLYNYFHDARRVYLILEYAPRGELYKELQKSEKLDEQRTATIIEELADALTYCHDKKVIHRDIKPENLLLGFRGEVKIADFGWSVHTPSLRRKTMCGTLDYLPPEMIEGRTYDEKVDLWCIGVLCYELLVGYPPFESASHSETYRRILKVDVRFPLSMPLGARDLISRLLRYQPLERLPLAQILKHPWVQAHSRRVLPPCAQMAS

[4] = molecular target: T4, Ephrin type-B receptor 4 (Homo sapiens) (UniProt P54760); assay: Inhibition of human recombinant EphB4 at 15 nM in presence of ATP by radiometric assay relative to control
T4 sequence (whole entry): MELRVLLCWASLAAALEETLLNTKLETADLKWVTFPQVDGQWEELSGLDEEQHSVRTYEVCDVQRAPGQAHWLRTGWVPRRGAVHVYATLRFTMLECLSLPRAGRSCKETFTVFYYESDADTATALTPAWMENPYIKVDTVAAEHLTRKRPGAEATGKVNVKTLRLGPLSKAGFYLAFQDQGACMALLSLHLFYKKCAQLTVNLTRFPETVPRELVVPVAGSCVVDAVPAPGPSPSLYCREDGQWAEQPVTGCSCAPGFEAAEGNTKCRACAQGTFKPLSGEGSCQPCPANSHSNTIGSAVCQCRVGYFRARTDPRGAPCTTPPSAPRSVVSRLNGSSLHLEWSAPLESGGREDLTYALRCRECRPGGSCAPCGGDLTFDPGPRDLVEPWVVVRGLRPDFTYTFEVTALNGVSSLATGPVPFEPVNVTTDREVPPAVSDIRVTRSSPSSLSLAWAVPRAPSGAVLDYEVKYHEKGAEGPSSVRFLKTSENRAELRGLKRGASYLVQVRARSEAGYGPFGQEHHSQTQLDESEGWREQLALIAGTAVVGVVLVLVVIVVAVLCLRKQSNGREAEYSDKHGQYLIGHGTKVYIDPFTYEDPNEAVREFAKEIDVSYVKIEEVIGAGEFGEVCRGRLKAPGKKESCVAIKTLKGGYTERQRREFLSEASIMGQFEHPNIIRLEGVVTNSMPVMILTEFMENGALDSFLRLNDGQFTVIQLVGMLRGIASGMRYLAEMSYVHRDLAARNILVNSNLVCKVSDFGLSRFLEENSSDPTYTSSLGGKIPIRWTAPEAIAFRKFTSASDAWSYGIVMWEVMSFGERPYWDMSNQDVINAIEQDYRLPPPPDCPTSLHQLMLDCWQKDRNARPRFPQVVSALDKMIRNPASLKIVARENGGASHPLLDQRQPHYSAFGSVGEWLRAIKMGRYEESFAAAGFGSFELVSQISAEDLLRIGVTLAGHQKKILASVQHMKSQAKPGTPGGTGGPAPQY

[5] = organism: Homo sapiens; assay: Inhibition of human recombinant p70S6K at 15 nM related to control ULK1
[6] = molecular target: T5, Tyrosine-protein kinase TXK (Homo sapiens) (UniProt P42681); assay: Inhibition of human recombinant TXK at 15 nM related to control ULK1
T5 sequence (whole entry): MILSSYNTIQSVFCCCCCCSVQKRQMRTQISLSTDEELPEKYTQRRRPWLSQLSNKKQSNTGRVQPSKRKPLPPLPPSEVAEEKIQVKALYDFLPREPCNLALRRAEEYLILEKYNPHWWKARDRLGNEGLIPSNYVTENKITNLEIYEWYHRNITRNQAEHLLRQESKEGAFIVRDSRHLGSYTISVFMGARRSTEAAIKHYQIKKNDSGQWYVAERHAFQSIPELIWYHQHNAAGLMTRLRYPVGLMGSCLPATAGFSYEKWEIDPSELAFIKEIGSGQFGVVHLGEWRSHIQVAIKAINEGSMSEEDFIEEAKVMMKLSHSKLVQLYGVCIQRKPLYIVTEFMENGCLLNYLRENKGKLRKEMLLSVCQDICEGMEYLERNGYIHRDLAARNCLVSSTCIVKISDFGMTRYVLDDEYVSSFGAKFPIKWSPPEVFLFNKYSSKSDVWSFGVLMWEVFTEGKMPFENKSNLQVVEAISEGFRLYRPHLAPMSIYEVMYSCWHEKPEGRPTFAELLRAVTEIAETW

Row | inhibition [1] [%] | fold change (FC) [2] | fold change (FC) [3] | inhibition [4] [%] | fold change (FC) [5] | fold change (FC) [6] | Structure (SMILES)
1 | 0 | 0 |  |  |  |  | O=C(N[C@@H](C1CC1)C(F)(F)F)c1cc(-c2cnn3cc(-c4ccc(F)cc4)cnc23)cs1
2 |  |  | 0.09 | 3 | 0.19 | 0.67 | CC(C)[C@H](NC(=O)c1cc(-c2cnn3cc(-c4ccc(OCCN5CCCCC5)cc4)cnc23)cs1)C(F)(F)F
